Measurements reported in patent US10662229B2, “Spider venom peptides and methods of use for modulating sodium channels” (priority 2016, dated 2020).
Where a SMILES comes first, the peptide text is derived from it. Bridges are numbered along the chain shown (N, C = ends).

Legend:
Format in all cases: cell-based
hNav1.1 = target: T1, hNav1.1 (Homo sapiens, UniProt P35498); experiment: FLIPR membrane potential assay, hNav1.1; settings: for Selectivity for Nav1.7, Nav subtype 1.1: membrane potential assay
T1 construct: host or cells: HEK293
Experimental: (§1) HEK293 cells stably expressing hNav1.1, hNav1.2, hNav1.3, hNav1.4, hNav1.5, hNav1.6, hNav1.7 and […] (SB Drug Discovery, Glasgow, UK) were cultured in minimum essential media (MEM) containing 10% v/v FBS supplemented with L-glutamine (2 mM) and selection antibiotics G-418 (0.5 mg/mL), blasticidin (2-4 μg/mL) and zeocin (0.5 mg/mL) as recommended by the manufacturer. CHO cells stably expressing hNav1.8 in a tetracycline-inducible system (Chantest, OH, USA) were cultured in Ham's F-12 containing 10% v/v FBS and selection antibiotics as recommended by the manufacturer. To induce hNav1.8 expression, cells were cultured in the presence of tetracycline (1 μg/mL) for 24 h at 27° C. Cells were grown in a humidified 5% CO2 incubator at 37° C., grown to 70-80% confluence, and passaged every 3-4 days using TrypLE Express (Invitrogen).
(§2) Cells were plated 48 h before the assay on 384-well black walled imaging plates at a density of 10,000 to 15,000 cells per well and were loaded with red membrane potential dye for 30 min at 37° C. (Molecular Devices, CA, USA). One vial of bulk red membrane potential dye was reconstituted to a 10× stock solution with PSS and stored at −20° C. and diluted to 1× solution with PSS on the day of the assay. […] Changes in membrane potential were assessed using the FLIPR^TETRA (excitation 515 to 545 nm, emission 565 to 625 nm) every second for 300 s after adding agonists.

hNav1.2 = target: T2, hNav1.2 (Homo sapiens, UniProt Q99250); experiment: FLIPR membrane potential assay, hNav1.2; settings: for Selectivity for Nav1.7, Nav subtype 1.2: membrane potential assay
T2 construct: host or cells: HEK293
Experimental: as §1, §2

hNav1.6 = target: T3, hNav1.6 (Homo sapiens, UniProt Q9UQD0); experiment: FLIPR membrane potential assay, hNav1.6; settings: for Selectivity for Nav1.7, Nav subtype 1.6: membrane potential assay
T3 construct: host or cells: HEK293
Experimental: as §1, §2

hNav1.3 = target: T4, hNav1.3 (Homo sapiens, UniProt Q9NY46); experiment: FLIPR membrane potential assay, hNav1.3; settings: for Selectivity for Nav1.7, Nav subtype 1.3: membrane potential assay
T4 construct: host or cells: HEK293
Experimental: as §1, §2

hNav1.4 = target: T5, hNav1.4 (Homo sapiens, UniProt P35499); experiment: FLIPR membrane potential assay, hNav1.4; settings: for Selectivity for Nav1.7, Nav subtype 1.4: membrane potential assay
T5 construct: host or cells: HEK293
Experimental: as §1, §2

hNav1.8 = target: T6, hNav1.8 (Homo sapiens, UniProt Q9Y5Y9); experiment: FLIPR membrane potential assay, hNav1.8; settings: for Selectivity for Nav1.7, Nav subtype 1.8: membrane potential assay
T6 construct: host or cells: HEK293
Experimental: as §1, §2

hNav1.7 = target: T7, hNav1.7 (Homo sapiens, UniProt Q15858); experiment: FLIPR membrane potential assay, hNav1.7; settings: for Selectivity for Nav1.7, Nav subtype 1.7: membrane potential assay, reference subtype
T7 construct: host or cells: HEK293
Experimental: as §1, §2

hNav1.5 = target: T8, hNav1.5 (Homo sapiens, UniProt Q14524); experiment: FLIPR membrane potential assay, hNav1.5; settings: for Selectivity for Nav1.7, Nav subtype 1.5: membrane potential assay
T8 construct: host or cells: HEK293
Experimental: as §1, §2

T6 sequence (Q9Y5Y9 whole entry): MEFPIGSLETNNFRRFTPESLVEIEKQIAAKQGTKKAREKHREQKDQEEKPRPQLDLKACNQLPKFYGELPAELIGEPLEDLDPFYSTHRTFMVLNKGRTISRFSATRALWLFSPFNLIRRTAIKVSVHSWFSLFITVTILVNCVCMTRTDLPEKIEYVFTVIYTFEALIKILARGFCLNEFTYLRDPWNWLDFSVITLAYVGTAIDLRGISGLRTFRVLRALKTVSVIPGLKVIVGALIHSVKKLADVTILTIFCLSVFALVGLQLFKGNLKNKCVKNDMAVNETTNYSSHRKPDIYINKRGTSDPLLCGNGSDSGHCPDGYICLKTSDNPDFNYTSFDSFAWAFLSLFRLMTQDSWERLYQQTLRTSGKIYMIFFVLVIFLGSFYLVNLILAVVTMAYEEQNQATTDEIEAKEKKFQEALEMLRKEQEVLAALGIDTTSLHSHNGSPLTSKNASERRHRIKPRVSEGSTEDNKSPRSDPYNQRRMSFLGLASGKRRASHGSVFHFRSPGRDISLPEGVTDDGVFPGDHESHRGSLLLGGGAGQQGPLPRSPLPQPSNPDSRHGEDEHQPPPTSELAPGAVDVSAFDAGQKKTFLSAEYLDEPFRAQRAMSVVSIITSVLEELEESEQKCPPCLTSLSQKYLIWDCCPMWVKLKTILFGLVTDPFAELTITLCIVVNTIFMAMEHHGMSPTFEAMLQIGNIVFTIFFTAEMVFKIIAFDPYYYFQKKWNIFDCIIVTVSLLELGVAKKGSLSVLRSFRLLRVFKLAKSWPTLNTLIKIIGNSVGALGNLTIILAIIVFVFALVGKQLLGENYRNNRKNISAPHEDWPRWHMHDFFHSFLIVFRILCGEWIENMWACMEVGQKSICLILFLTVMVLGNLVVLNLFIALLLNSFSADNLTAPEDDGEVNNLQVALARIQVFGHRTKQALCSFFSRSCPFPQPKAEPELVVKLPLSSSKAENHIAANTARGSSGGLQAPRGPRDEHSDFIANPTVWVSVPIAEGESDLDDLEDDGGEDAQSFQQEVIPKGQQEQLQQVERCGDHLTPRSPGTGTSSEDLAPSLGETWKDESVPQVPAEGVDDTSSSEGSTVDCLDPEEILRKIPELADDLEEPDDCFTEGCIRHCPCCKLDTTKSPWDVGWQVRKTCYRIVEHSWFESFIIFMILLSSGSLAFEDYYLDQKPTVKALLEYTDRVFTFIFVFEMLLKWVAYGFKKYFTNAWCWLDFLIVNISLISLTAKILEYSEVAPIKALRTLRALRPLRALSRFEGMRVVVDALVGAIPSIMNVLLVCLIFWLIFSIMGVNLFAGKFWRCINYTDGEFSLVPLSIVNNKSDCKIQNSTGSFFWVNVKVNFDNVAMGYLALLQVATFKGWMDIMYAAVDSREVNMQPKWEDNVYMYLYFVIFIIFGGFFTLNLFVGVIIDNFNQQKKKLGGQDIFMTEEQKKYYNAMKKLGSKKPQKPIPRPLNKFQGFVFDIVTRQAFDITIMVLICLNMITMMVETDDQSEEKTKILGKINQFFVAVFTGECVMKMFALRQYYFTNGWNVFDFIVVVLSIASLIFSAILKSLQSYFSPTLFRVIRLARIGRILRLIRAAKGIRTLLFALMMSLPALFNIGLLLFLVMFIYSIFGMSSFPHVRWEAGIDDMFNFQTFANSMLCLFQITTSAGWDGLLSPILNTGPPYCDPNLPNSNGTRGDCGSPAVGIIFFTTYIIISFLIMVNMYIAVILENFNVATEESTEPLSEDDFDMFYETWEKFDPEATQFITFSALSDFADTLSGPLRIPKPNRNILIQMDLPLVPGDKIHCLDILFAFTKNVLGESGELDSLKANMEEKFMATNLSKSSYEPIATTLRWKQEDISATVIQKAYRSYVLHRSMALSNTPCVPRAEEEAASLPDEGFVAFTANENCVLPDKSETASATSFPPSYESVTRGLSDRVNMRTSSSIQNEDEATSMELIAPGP
T3 sequence (Q9UQD0 whole entry): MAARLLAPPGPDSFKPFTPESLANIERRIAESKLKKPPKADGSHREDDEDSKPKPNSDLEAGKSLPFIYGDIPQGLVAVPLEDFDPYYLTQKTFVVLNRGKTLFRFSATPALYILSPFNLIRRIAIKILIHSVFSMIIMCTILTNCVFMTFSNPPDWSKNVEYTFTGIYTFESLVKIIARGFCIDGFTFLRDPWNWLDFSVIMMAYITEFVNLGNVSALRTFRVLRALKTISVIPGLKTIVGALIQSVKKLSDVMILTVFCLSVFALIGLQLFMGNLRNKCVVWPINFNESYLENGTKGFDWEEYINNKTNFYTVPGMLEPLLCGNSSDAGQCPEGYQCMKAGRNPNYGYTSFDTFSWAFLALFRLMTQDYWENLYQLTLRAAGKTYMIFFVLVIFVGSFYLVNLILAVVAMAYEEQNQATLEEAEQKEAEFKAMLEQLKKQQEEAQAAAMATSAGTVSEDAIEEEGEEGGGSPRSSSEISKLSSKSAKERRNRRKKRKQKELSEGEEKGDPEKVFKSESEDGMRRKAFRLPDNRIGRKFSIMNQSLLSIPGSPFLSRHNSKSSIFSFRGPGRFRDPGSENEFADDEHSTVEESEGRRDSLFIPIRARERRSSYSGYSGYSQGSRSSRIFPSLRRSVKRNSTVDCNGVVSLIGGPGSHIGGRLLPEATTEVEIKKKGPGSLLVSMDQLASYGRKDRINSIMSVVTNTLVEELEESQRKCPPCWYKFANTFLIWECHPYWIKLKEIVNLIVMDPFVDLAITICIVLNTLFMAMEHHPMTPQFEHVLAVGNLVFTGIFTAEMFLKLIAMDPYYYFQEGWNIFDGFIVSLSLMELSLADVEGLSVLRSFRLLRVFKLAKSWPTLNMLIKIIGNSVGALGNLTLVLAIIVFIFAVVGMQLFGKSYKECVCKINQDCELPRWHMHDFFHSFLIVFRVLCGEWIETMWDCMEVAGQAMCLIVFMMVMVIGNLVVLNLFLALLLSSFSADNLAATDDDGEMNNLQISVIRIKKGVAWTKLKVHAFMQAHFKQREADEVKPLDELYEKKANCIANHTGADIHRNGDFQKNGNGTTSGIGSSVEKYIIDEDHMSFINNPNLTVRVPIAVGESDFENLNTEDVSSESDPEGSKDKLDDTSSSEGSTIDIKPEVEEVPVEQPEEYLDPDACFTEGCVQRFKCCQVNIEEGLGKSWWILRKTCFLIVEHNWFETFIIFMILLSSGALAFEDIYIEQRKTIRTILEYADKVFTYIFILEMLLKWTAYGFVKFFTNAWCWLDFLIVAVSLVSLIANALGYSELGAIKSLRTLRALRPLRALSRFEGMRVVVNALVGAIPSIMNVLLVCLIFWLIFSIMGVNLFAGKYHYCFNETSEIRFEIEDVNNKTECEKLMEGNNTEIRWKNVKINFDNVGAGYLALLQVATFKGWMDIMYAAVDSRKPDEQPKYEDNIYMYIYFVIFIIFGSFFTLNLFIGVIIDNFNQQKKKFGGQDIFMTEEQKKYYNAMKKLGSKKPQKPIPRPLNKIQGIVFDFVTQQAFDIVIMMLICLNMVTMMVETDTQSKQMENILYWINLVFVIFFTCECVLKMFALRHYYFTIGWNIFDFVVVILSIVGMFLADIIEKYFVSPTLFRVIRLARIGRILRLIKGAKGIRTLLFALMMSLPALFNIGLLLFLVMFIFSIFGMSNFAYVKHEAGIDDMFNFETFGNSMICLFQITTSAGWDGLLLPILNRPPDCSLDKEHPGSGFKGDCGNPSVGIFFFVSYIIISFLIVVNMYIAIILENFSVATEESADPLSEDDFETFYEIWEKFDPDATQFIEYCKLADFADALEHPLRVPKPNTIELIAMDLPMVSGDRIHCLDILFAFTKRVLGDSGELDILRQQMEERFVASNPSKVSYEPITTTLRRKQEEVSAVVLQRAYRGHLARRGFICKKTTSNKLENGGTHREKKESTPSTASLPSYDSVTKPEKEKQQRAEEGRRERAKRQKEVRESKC

Structure (SMILES) | IC50 (hNav1.1) [µM] | Selectivity for Nav1.7, Nav subtype 1.1 (hNav1.1) | IC50 (hNav1.2) [µM] | Selectivity for Nav1.7, Nav subtype 1.2 (hNav1.2) | IC50 (hNav1.6) [µM] | Selectivity for Nav1.7, Nav subtype 1.6 (hNav1.6) | IC50 (hNav1.3) [µM] | Selectivity for Nav1.7, Nav subtype 1.3 (hNav1.3) | IC50 (hNav1.4) [µM] | Selectivity for Nav1.7, Nav subtype 1.4 (hNav1.4) | IC50 (hNav1.8) [µM] | Selectivity for Nav1.7, Nav subtype 1.8 (hNav1.8) | IC50 (hNav1.7) [µM] | Selectivity for Nav1.7, Nav subtype 1.7 (hNav1.7) | IC50 (hNav1.5) [µM] | Selectivity for Nav1.7, Nav subtype 1.5 (hNav1.5)
CSCC[C@@H]1NC(=O)[C@H](Cc2ccc(O)cc2)NC(=O)[C@H](CCCNC(=N)N)NC(=O)[C@@H](NC(=O)[C@@H](N)CC(=O)O)CSSC[C@@H]2NC(=O)[C@@H]3CSSC[C@@H](C(=O)N[C@@H](C)C(=O)N[C@@H](Cc4c[nH]c5ccccc45)C(=O)N[C@@H](CC(=O)O)C(=O)N[C@@H](Cc4ccccc4)C(=O)N[C@H](C(=O)N[C@@H](Cc4ccccc4)C(=O)N[C@H](C(=O)O)[C@@H](C)O)[C@@H](C)O)NC(=O)[C@H](Cc4ccc(O)cc4)NC(=O)[C@H](CCCCN)NC(=O)[C@H](CCSC)NC(=O)[C@H](CCCCN)NC(=O)[C@H](CCCNC(=N)N)NC(=O)[C@H](CCCCN)NC(=O)[C@H](CSSC[C@H](NC(=O)[C@H](CC(=O)O)NC(=O)CNC(=O)[C@H](Cc4ccccc4)NC1=O)C(=O)N[C@@H](CCC(=O)O)C(=O)N[C@@H](CCCCN)C(=O)N[C@@H](CC(=O)O)C(=O)N[C@@H](C)C(=O)N[C@@H](CC(=O)O)C(=O)N3)NC(=O)CNC(=O)[C@H](CC(C)C)NC(=O)[C@H](Cc1c[nH]cn1)NC(=O)[C@H](CCCCN)NC2=O [[E13A]Pnc1a] (H-DCRYMFGDCEKDADCCKHLGCKRKMKYCAWDFTFT-OH; disulfide 2-16, 9-21, 15-28) | 4 | 29 | 0.566 | 4 | 8 | 61 | 2 | 18 | 5 | 36 | > 30 | >217 | 0.139 | 1 | > 30 | >217
CSCC[C@@H]1NC(=O)[C@H](Cc2ccc(O)cc2)NC(=O)[C@H](CCCNC(=N)N)NC(=O)[C@@H](NC(=O)[C@@H](N)CCCCN)CSSC[C@@H]2NC(=O)[C@@H]3CSSC[C@@H](C(=O)N[C@@H](C)C(=O)N[C@@H](Cc4c[nH]c5ccccc45)C(=O)N[C@@H](CC(=O)O)C(=O)N[C@@H](Cc4ccccc4)C(=O)N[C@H](C(=O)N[C@@H](Cc4ccccc4)C(=O)N[C@H](C(=O)O)[C@@H](C)O)[C@@H](C)O)NC(=O)[C@H](Cc4ccc(O)cc4)NC(=O)[C@H](CCCCN)NC(=O)[C@H](CCSC)NC(=O)[C@H](CCCCN)NC(=O)[C@H](CCCNC(=N)N)NC(=O)[C@H](CCCCN)NC(=O)[C@H](CSSC[C@H](NC(=O)[C@H](CC(=O)O)NC(=O)CNC(=O)[C@H](Cc4ccccc4)NC1=O)C(=O)N[C@@H](CCC(=O)O)C(=O)N[C@@H](CCCCN)C(=O)N[C@@H](CC(=O)O)C(=O)N[C@@H](CCC(=O)O)C(=O)N[C@@H](CC(=O)O)C(=O)N3)NC(=O)CNC(=O)[C@H](CC(C)C)NC(=O)[C@H](Cc1c[nH]cn1)NC(=O)[C@H](CCCCN)NC2=O [[D1K]Pnc1a] (H-KCRYMFGDCEKDEDCCKHLGCKRKMKYCAWDFTFT-OH; disulfide 2-16, 9-21, 15-28) | 0.754 | 24 | 0.261 | 8 | > 30 | >900 | 4 | 134 | 3 | 86 | > 30 | >900 | 0.031 | 1 | > 30 | >900
